Source: US9044453B2, “Long-acting injectable moxidectin formulations and novel moxidectin crystal forms” (MERIAL, INC., priority 2011, dated 2015)

Experiment: Moisture Sorption Gravimetric Analysis (SGA), hygroscopicity
Type: physicochemical
Details: isothermal 25° C., 5 to 95 % RH
Procedure: Moisture Sorption Gravimetric Analysis (SGA). Utilizing a dynamic SGA100 from VTI, adsorption and desorption profiles were obtained with the following conditions: 1) Isothermal @ 25° C.; 2) Maximum Equilibration Time of 10 minutes; 3) 0.0010 wt % in 5 minutes; and 4) % RH (Relative Humidity) Steps of 5 to 95, and 95 to 5 @ 5% increments.

SMILES | hygroscopicity
CO/N=C1\C[C@]2(C[C@@H]3C[C@@H](C/C=C(\C)C[C@@H](C)/C=C/C=C4\CO[C@@H]5[C@H](O)C(C)=C[C@@H](C(=O)O3)[C@]45O)O2)O[C@H](/C(C)=C/C(C)C)[C@H]1C [Crystalline moxidectin, moxidectin] | almost non-hygroscopic
CO/N=C1\C[C@]2(C[C@@H]3C[C@@H](C/C=C(\C)C[C@@H](C)/C=C/C=C4\CO[C@@H]5[C@H](O)C(C)=C[C@@H](C(=O)O3)[C@]45O)O2)O[C@H](/C(C)=C/C(C)C)[C@H]1C [amorphous moxidectin, moxidectin] | slightly hygroscopic
